Experimental data: patent US20030171424A1, “Intravenous formulation of artelinic acid for treatment of severe and complicated malaria” (priority 2002, published 2003)

How the values were obtained:
[1] = cited from earlier work; for CNS toxicity: chronically dosed rats and dogs; for CNS toxicity versus oil soluble analogs such as artemether and arteether: rats and dogs
[2] = in vivo; cited from earlier work
severe malaria = assay: Efficacy in Severe Malaria (rhesus); type: in vivo
P. coatneyi malaria = assay: AL/LY Efficacy in Uncomplicated Malaria (rhesus); type: in vivo; settings: control animal, 7 days of IM BID
Protocol: 1. AL/LY Efficacy in Uncomplicated Malaria (done with PK trial)
i. 10 splenectomized rhesus with mild P. coatneyi malaria (mean parasitemia 773K/μl or 11.8%) and one quinine control (773K/μl or 13.5%). All asymptomatic.
ii. 11.8 mg/kg loading dose given IV push over 3 minutes, then 5.9 mg/kg for 2 days

[3] = Stability of bulk salt and solutions on standing; type: physicochemical
Source text: The precipitates were identified by NMR and x-ray crystallography to be pure artelinic acid.
Feasibility of using preformed AL salts with three basic amino acids, L-lysine, L-arginine or L-histidine for AL intravenous formulation were studied. The basicity of histidine is too weak to form water soluble AL-histidine salt. […] Therefore, L-lysine was deemed the most feasible.
AL/LY is soluble in water, saline, glucose solution or any IV injectable (neutral or basic) water solution. […] Therefore, for practical purpose, the preferred vehicle for intravenous injection is a normal saline or 5% glucose solution containing 0.1-0.5% L-lysine. The final osmolarity is around 290 mosm/kg.

P. berghei = settings: administered orally; cited from earlier work
P. knowlesi = settings: rhesus monkeys, 15 mg/kg×3 days; cited from earlier work
[4] = Protocol: The most commonly used water soluble salt for acidic drugs is sodium salt. The sodium salt of artelinic acid was prepared in our laboratory by dissolving artelinic acid in a slightly less than one equivalent mole of sodium hydroxide solution. The slight excess amount of insoluble artelinic acid was removed by extraction of the mixture with diethyl ether. The aqueous layer was evaporated under reduced pressure using a rotary evaporator to remove the small amount of volatile diethyl ether, and then lyophilized to give sodium artelinate as a white powder.
[5] = Intravenous toxicity and tolerance in rat; type: in vivo; settings: in 5% sodium carbonate vehicle
Source text: Although a ready-to-use intravenous solution in a multiple dose vial is a convenient and preferable formulation, current formulation of dissolving preformed AL/LY salt in 0.3% of L-lysine/saline solution prior to administration has been used satisfactorily to assess the efficacy and toxicity of AL in rat, Aotus and Rhesus monkey models.

[6] = aqueous solution made in 5% sodium bicarbonate; cited from earlier work

Compound: CO[C@H]1O[C@@H]2O[C@@]3(C)CC[C@H]4[C@H](C)CC[C@@H]([C@H]1C)[C@@]24OO3 [artemether, Artemether]
- CNS toxicity [1]: fatal CNS toxicity
- plasma half-life [2]: short plasma half-life

Compound: C[C@H]1[C@H](OC(=O)CCC(=O)O)O[C@@H]2O[C@@]3(C)CC[C@H]4[C@H](C)CC[C@@H]1[C@@]24OO3 [AS, artesunic acid]
- CNS toxicity versus oil soluble analogs such as artemether and arteether [1]: substantially less CNS toxicity

Compound: C=C[C@H]1C[N@@]2CC[C@H]1C[C@H]2[C@H](O)c1ccnc2ccc(OC)cc12 [quinine]
- cure (severe malaria; IM BID for 7 days): all cured
- parasitemia cleared, mean time (severe malaria; IM BID for 7 days): 5.6 days
- time to resolution of severe malaria symptoms (severe malaria; IM BID for 7 days): 3 days
- survived (severe malaria; IM BID for 7 days, controls (4 of 5)): 80%
- died (severe malaria; therapy delayed 24 hours): 50%
- day on which parasitemia cleared (P. coatneyi malaria): 8 days

Compound: CC1CCC2C(C)C(OCc3ccc(C(=O)O)cc3)OC3OC4(C)CCC1C32OO4.N=C(N)NCCCC(N)C(=O)O (stereo not shown) [AL-arginine salt]
- colour of aqueous solution on standing ([3]; room temperature, within two days to one week): turned to deep red color

Compound: C[C@H]1[C@@H](OCc2ccc(C(=O)[O-])cc2)O[C@@H]2O[C@]3(C)CC[C@H]4[C@H](C)CC[C@@H]1[C@@]24OO3.[Na+] [Na-AL, Sodium artelinate]
- plasma half-life [2]: 90 to 180 min
- time the solution stayed clear ([3]; in sodium carbonate 0.1 to 0.5%, depending on concentration): from one week to one month
- appearance of freshly prepared aqueous solution on standing ([3]; room temperature): turned turbidity
- decomposition product on standing ([3]; room temperature for three months): No decomposition product was detected
- crystal formation on longer standing ([3]; sodium carbonate solutions, room temperature, longer period, free artelinic acid): crystallized out from all solutions
- efficacy (P. berghei): highly effective
- cure of infection (P. knowlesi): complete cures
- solubility in distilled water [4]: does not dissolve completely
- solubility in sodium carbonate solution [4]: very soluble
- water solubility [4]: > 60 mg/mL

Compound: artelinic acid [AL]
- LD50 ([5]; female rat): 50 mg/kg
- LD50 ([5]; male rat): 67 mg/kg
- CNS toxicity versus oil soluble analogs such as artemether and arteether [1]: substantially less CNS toxicity
- water solubility [4]: not water soluble

Compound: CCO[C@H]1O[C@@H]2O[C@@]3(C)CC[C@H]4[C@H](C)CC[C@@H]([C@H]1C)[C@@]24OO3 [arteether, Arteether]
- CNS toxicity [1]: fatal CNS toxicity
- plasma half-life [2]: short plasma half-life

Compound: C[C@H]1[C@H](OC(=O)CCC(=O)[O-])O[C@@H]2O[C@@]3(C)CC[C@H]4[C@H](C)CC[C@@H]1[C@@]24OO3.[Na+] [sodium artesunate, Sodium artesunate]
- time within which dihydroartemisinin precipitates out from unused solution [6]: 2 to 3 h
- plasma half-life [2]: 20 to 30 min
